Measured values reported in patent publication US20250243464A1, “ENHANCED DIFFERENTIATION OF PANCREATIC ISLET CELLS” (Vertex Pharmaceuticals Incorporated, priority 2022, published 2025).

Experiments:
EZH2 = EZH2 (Homo sapiens, UniProt Q15910); settings: cited from earlier work
Sox17+/Oct4− cells = test: Flow cytometry for Sox17 and Oct4 at S1C after amino acid supplementation in S1 of Protocol 2; assay type: cell-based; settings: supplementation in S1 to final 200 μM aspartate, 300 μM glycine, 585 μM serine, Protocol 2, 0.3 L scale
Procedure: (§1) To determine whether supplementation of amino acids identified in Example 1 altered cellular differentiation outcomes, the following experiments were conducted. […] A control condition following Protocol 2 only was also performed.
The amino acid supplemented S1 base media were utilized for each S1 feed in a Protocol 2 differentiation at 0.3 L scale, alongside a control. At S1C, samples of cells were collected, stained with Sox17 and Oct4 and analyzed by flow cytometry.

PDX1+/NKX6.1− cells = test: Flow cytometry for NKX6.1 and PDX1 at S3C after amino acid supplementation in S1; assay type: cell-based; settings: supplementation in S1 to final 200 μM aspartate, 300 μM glycine, 585 μM serine
Procedure: as §1
At S3C, samples of the cells that were supplemented with different amino acids during S1C were collected and stained with NKX6.1 and PDX1 and analyzed using flow cytometry. […] In the control, 89.3% of cells were in PDX1+/NKX6.1-, while in aspartate supplemented samples 90% of cells were PDX1+/NKX6.1-(FIG. 6B).

PDX1+/NKX6.1+ cells = test: Flow cytometry for NKX6.1 and PDX1 at S4C after amino acid supplementation in S1; assay type: cell-based; settings: supplementation in S1 to final 200 μM aspartate, 300 μM glycine, 585 μM serine
Procedure: as §1
At S4C, samples of the cells that were supplemented with different amino acids during the S1C step were collected and stained with NKX6.1 and PDX1 and analyzed using flow cytometry.

[1] = test system: ISL1+/NKX6.1+ (β-like) cells and ISL1+/NKX6.1− (α-like) cells; test: Flow cytometry for NKX6.1 and ISL1 at S5C after amino acid supplementation in S1; assay type: cell-based; settings: supplementation in Stage 1; for amount of SC-β-cells / SC-β-cell composition versus control: Stage 5 (S5C)
Procedure: as §1
(§2) At S5C, samples of the cells that were supplemented with different amino acids during S1C were collected and stained with NKX6.1 and ISL1 and analyzed using flow cytometry. […] To determine how amino acid supplementation affected yield, cell viability assays were performed.
(§3) In the next set of experiments, different combinations of amino acids were tested for their effects on yield and β-cell composition. […] The control group only received treatment with Protocol 2. […] The amino acid supplemented S1 base media were utilized for each S1 feed in a Protocol 2 differentiation at 0.3 L scale, alongside a control. At S5C, samples of cells were collected, stained with NKX6.1 and ISL1 and analyzed by flow cytometry. […] To determine how amino acid supplementation affected yield, cell viability assays were performed.

viable cell density = test: Cell viability assays / yield of Protocol 2 differentiation with amino acid supplementation in S1; assay type: cell-based
Procedure: as §2, §3

EZH2, sequence (Q15910 whole entry, species assumed): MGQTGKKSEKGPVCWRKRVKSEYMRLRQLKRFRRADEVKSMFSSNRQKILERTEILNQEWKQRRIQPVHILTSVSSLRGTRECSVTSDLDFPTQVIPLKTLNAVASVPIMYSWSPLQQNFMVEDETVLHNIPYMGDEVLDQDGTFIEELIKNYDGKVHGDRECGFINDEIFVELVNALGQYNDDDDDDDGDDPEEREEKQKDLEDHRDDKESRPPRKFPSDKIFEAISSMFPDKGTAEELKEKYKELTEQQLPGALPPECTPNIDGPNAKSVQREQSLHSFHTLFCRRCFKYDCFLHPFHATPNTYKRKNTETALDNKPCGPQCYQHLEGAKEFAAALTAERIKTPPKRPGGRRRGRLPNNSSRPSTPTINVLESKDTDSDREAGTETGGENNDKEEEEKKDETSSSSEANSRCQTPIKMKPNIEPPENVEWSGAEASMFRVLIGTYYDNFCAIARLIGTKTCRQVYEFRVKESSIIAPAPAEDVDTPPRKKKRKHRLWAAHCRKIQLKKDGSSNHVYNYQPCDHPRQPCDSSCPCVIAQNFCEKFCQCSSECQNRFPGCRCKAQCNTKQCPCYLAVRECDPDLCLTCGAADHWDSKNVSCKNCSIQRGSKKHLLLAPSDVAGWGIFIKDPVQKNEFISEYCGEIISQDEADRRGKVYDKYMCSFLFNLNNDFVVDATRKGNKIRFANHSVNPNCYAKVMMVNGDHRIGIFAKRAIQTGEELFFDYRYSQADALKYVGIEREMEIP
EZH2, sequence (O75530 whole entry partner, species assumed): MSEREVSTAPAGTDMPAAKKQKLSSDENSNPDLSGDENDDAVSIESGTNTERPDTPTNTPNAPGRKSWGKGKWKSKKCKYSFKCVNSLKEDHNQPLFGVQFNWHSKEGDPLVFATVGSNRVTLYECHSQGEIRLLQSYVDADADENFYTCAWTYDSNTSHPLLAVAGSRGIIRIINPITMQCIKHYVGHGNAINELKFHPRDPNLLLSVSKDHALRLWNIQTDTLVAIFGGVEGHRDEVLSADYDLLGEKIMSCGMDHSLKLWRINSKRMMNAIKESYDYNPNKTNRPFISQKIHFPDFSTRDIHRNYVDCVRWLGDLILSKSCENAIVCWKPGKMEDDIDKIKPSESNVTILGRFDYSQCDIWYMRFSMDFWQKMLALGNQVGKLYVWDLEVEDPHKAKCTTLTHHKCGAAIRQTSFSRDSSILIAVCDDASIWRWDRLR
EZH2, sequence (Q15022 whole entry partner, species assumed): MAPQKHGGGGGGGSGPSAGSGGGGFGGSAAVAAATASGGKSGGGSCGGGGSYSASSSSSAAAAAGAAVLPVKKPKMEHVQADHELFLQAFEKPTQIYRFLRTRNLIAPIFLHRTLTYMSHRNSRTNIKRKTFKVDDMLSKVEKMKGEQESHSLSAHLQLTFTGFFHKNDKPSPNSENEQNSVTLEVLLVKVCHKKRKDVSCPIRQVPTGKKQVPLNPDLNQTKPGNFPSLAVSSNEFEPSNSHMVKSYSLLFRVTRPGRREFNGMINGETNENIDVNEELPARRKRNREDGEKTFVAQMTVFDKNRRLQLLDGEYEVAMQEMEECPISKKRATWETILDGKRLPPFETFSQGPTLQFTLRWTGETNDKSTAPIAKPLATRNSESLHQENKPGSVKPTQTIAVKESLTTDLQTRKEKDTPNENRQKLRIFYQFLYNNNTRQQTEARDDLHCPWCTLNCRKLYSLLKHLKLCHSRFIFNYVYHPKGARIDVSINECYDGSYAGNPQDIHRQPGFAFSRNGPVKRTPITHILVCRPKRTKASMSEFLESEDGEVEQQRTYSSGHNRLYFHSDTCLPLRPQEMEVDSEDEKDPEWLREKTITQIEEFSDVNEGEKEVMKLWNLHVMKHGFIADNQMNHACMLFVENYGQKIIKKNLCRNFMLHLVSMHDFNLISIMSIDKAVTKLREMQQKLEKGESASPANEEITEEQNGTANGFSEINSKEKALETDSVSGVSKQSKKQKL

| Compound | selectivity over EZH1 (EZH2; EZH2 versus EZH1) [fold] | % of Sox17+/Oct3/4− cells (Sox17+/Oct4− cells) [%] | % of PDX1+/NKX6.1− cells (PDX1+/NKX6.1− cells) [%] | % of PDX1+/NKX6.1+ cells (PDX1+/NKX6.1+ cells) [%] | α-like cell development ([1]; S5C) | yield (viable cells at harvest) relative to the control (viable cell density) | selectivity compared with GSK126 (EZH2) | amount of SC-β-cells / SC-β-cell composition versus control [1] |
| --- | --- | --- | --- | --- | --- | --- | --- | --- |
| CC[C@H](C)n1cc(C)c2c(C(=O)NCc3c(C)cc(C)[nH]c3=O)cc(-c3ccc(N4CCNCC4)nc3)cc21 [GSK126] | 150 |  |  |  |  |  |  |  |
| N[C@@H](CO)C(=O)O [Protocol 2 + Serine, serine] |  | 72.9 | 89.1 | 72.1 | promoted α-like cell development | decreased yield |  |  |
| CCCc1cc(C)[nH]c(=O)c1CNC(=O)c1cc(-c2ccc(N3CCN(C(C)C)CC3)nc2)cc2c1cnn2C(C)C [UNC1999] |  |  |  |  |  |  | less selective |  |
| aspartate [Protocol 2 + Aspartate] |  | 75.6 | 90 | 77.8 |  |  |  | increased |
| glycine [Protocol 2 + Glycine] |  | 81.1 | 89.1 | 77.2 |  | decreased yield |  | increased |
